From ChEMBL document CHEMBL1201862, “PubChem BioAssay data set” (2004)
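These data come from cells grown in 96-well plates and exposed to compound for 48 hours at five concentrations. GI50 marks 50% less growth.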 Activity calls are given as the source filed them. Cut-off read from the data, not from the text of the source: active = GI50 up to about 1.1 µM and inactive = higher.

Columns and labels:
Test in all cases: NCI anticancer screen, dose series, 48 h
[1] = tested on: DU-145
[2] = tested on: MDA-MB-231
[3] = tested on: DMS-273
[4] = tested on: XF498
[5] = tested on: DLD-1
[6] = tested on: BT-549

Compound	GI50 [1]	GI50 [2]	GI50 [3]	GI50 [4]	GI50 [5]	GI50 [6]
O=C(Nc1ccccc1F)c1c(O)nc2sccn2c1=O	> 10 µM (inactive)	> 10 µM (inactive)	–	–	–	–
CNC(=O)SCC(N)C(=O)O (configuration not stated)	–	–	71.4 µM (inactive)	84.9 µM (inactive)	> 100 µM (inactive)	–
CCOC(=O)CSc1nc(N)c2c(-c3ccc(OC)c(OC)c3)c3c(nc2n1)CCCC3	> 100 µM (inactive)	43 µM (inactive)	–	–	–	61.9 µM (inactive)
C[C@]12CC[C@@H]3c4ccc(OCCN5CCCC5)cc4CC[C@H]3[C@@H]1CCC2=O	47.9 µM (inactive)	24.5 µM (inactive)	–	–	–	–
CSc1nc(CO)c(CO)n1C	–	–	> 100 µM (inactive)	> 100 µM (inactive)	> 100 µM (inactive)	–
COc1cc(-c2cc(=O)c3c(O)c(CC=C(C)C)c(O)cc3o2)ccc1O	32.9 µM (inactive)	43.5 µM (inactive)	–	–	–	21.6 µM (inactive)
Cn1c(=O)[nH]c2nncnc2c1=O	–	–	21.6 µM (inactive)	54.2 µM (inactive)	384 µM (inactive)	–
Nc1cccc2c1C1=NNC(=O)CC1C2 (configuration not stated)	–	–	> 100 µM (inactive)	> 100 µM (inactive)	> 100 µM (inactive)	–
